Read-outs that look alike come from different tables or passages of the source.
Assays:
Siglec-2 (murine CD22) = target: T1, Siglec-2 (murine CD22) (Mus musculus, UniProt P35329); assay: Hapten inhibition assay, Siglec-2 (murine CD22); assay type: binding; conditions: for IC50: unit inferred; for Siglec-2 (murine CD22) rIP: quotient IC50 reference compound / IC50 compound
T1 sequence (P35329 22-148 limits assumed): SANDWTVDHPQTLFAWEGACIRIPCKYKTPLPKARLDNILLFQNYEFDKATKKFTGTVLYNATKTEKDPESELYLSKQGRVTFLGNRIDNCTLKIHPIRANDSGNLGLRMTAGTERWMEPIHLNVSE
Description: (§1) Preferably, the inhibition can be determined by a Hapten inhibition test. […] After overnight incubation at 4° C. the unbound complexes are removed by washing the cells and the bound radioactivity is determined. From the data obtained in this way, the concentrations are found which lead to 50% inhibition of the binding (IC50 values) (5, 6). Specially preferred during the Hapten inhibition test was 10 μl of the complex solution with an activity of 10^3 Bq ^125I mixed with the same volume of a solution of the substance to be investigated (concentrated three times) and incubated at 4° C. for one hour. Then followed the addition of 10 μl of a suspension of target cells, preferably 0.25 to 0.5% of human erythrocytes and incubation overnight at 4° C. The unbound radioactivity is removed by washing the cells five times with 200 μl of washing buffer, preferably phosphate-buffered saline with 0.1% (W/V) bovine serum albumin, and the cell-bound activity is determined with a γ-counter. […] The inhibition is determined in that the value without inhibitor is set to 0% and that with the sialidase-treated cells is set equal to 100%.
(§2) The IC50 value is the siglec inhibitor concentration which leads to 50% inhibition in the binding in the Hapten inhibition assay.

Siglec-4a (MAG) = target: T2, Siglec-4a (MAG) (UniProt P20917); assay: Hapten inhibition assay, Siglec-4a (MAG); conditions: for Siglec-4a (MAG) rIP: quotient IC50 reference compound / IC50 compound; for IC50: read-out: Siglec-4a (MAG) IC50; for Siglec-4a (MAG) percentage in parentheses below the IC50 bound: at the concentration of the IC50 bound, meaning not defined in the patent
T2 sequence (P20917 1-627): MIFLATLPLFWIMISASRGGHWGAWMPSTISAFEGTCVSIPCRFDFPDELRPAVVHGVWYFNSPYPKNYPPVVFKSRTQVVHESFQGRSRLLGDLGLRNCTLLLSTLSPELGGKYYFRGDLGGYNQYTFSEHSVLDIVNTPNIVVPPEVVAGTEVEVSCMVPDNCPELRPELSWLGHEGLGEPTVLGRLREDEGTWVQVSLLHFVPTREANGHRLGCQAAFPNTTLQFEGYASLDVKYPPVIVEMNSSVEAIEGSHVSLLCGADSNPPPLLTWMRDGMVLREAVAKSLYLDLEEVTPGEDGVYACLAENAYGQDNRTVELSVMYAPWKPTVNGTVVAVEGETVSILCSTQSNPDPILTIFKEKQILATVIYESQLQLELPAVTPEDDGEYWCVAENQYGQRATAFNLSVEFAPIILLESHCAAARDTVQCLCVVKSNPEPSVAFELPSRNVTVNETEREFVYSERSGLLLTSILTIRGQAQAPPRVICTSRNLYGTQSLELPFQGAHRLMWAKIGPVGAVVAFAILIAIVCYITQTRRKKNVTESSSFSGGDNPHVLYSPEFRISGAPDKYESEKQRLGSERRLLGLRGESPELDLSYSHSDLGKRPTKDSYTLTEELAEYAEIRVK
Description: Preferably, the inhibition can be determined by a Hapten inhibition test. […] After overnight incubation at 4° C. the unbound complexes are removed by washing the cells and the bound radioactivity is determined. […] Then followed the addition of 10 μl of a suspension of target cells, preferably 0.25 to 0.5% of human erythrocytes and incubation overnight at 4° C. The unbound radioactivity is removed by washing the cells five times with 200 μl of washing buffer, preferably phosphate-buffered saline with 0.1% (W/V) bovine serum albumin, and the cell-bound activity is determined with a γ-counter. […] The inhibition is determined in that the value without inhibitor is set to 0% and that with the sialidase-treated cells is set equal to 100%.

Siglec-2 (human CD22) = target: T3, Siglec-2 (human CD22) (Homo sapiens, UniProt P20273); assay: Hapten inhibition assay, Siglec-2 (human CD22); assay type: binding; conditions: for Siglec-2 (human CD22) rIP: quotient IC50 reference compound / IC50 compound; for IC50: unit inferred
T3 sequence (P20273 20-138 limits assumed): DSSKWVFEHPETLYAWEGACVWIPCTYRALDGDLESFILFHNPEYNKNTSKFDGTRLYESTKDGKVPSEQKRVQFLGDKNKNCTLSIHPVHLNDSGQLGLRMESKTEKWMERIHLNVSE
Description: as §1, §2

Siglec-1 (sialoadhesin) = Siglec-1 (sialoadhesin) (Mus musculus, UniProt Q62230); assay: Hapten inhibition assay, Siglec-1 (sialoadhesin); assay type: binding; conditions: for Siglec-1 (sialoadhesin) rIP: quotient IC50 reference compound / IC50 compound; for Siglec-1 (sialoadhesin) percentage in parentheses below the IC50 bound: at the concentration of the IC50 bound, meaning not defined in the patent
Sequence of Siglec-1 (sialoadhesin) (Q62230 20-136 limits assumed): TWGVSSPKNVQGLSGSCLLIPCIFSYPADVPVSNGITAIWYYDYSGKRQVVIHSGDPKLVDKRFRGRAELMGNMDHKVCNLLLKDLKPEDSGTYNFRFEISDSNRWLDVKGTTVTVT
Description: as §1, §2

Row | Compound | IC50 (Siglec-2 (murine CD22)) [µM] | Siglec-4a (MAG) rIP (Siglec-4a (MAG)) | IC50 (Siglec-4a (MAG); unit inferred) [mM] | Siglec-2 (human CD22) rIP (Siglec-2 (human CD22)) | IC50 (Siglec-2 (human CD22)) [µM] | Siglec-1 (sialoadhesin) rIP (Siglec-1 (sialoadhesin)) | IC50 (Siglec-1 (sialoadhesin); unit inferred) [mM] | Siglec-2 (murine CD22) rIP (Siglec-2 (murine CD22)) | Siglec-1 (sialoadhesin) percentage in parentheses below the IC50 bound (Siglec-1 (sialoadhesin)) | IC50 (Siglec-1 (sialoadhesin); bounds given in mM) [mM] | Siglec-4a (MAG) percentage in parentheses below the IC50 bound (Siglec-4a (MAG)) | IC50 (Siglec-4a (MAG); bounds given in mM) [mM]
1 | CO[C@]1(C(=O)O)C[C@H](O)[C@@H](NC(C)=O)[C@H]([C@H](O)[C@H](O)CNC(=O)c2cc(O)cc(O)c2)O1 [Methyl-α-9-N-(3,5-dihydroxybenzoyl)-amino-9-desoxy-Neu5Ac] | 1470 | 166 | 0.028 | 19 | 73 | 1.7 | 0.525 | – | – | – | – | –
2 | CO[C@]1(C(=O)O)C[C@H](O)[C@@H](NC(C)=O)[C@H]([C@H](O)[C@H](O)CO)O1 [Methyl-α-Neu5Ac, reference compound] | 4690 | 1.0 | 4.72 | 1.0 | 1390 | 1.0 | 0.884 | 1.0 | – | – | – | –
3 | CO[C@]1(C(=O)O)C[C@H](O)[C@@H](NC(C)=O)[C@H]([C@H](O)[C@H](O)CNC(=O)c2cccnc2)O1 [Methyl-α-9-N-(pyridine-3-carbonyl)-amino-9-desoxy-Neu5Ac] | 335 | 170 | 0.025 | 2.3 | 445 | 0.5 | – | 14 | – | – | – | –
4 | CO[C@]1(C(=O)O)C[C@H](O)[C@@H](NC(C)=O)[C@H]([C@H](O)[C@H](O)CNC(=O)Cc2ccc3ccccc3c2)O1 [Methyl-α-9-N-(naphthyl-2-acetyl)-amino-9-desoxy-Neu5Ac] | 71 | 13 | 0.367 | 131 | 8 | 0.5 | 1.75 | 83 | – | – | – | –
5 | COc1ccc(C(=O)NC[C@@H](O)[C@@H](O)[C@@H]2O[C@@](OC)(C(=O)O)C[C@H](O)[C@H]2NC(C)=O)cc1 [Methyl-α-9-N-(4-methoxybenzoyl)-amino-9-desoxy-Neu5Ac] | 667 | 393 | 0.012 | 19 | 120 | 8.4 | 0.042 | 7.4 | – | – | – | –
6 | CCCCCC(=O)NCC(O)C(O)C1OC(OC)(C(=O)O)CC(O)C1NC(C)=O (stereo not drawn) [Methyl-α-9-N-hexanoyl-amino-9-desoxy-Neu5Ac] | – | 54 | 0.198 | – | – | 0.7 | 1.46 | – | – | – | – | –
7 | COC1(C(=O)O)CC(O)C(NC(C)=O)C(C(O)C(O)CNC(=O)CNC(=O)CNC(=O)CN)O1 (stereo not drawn) [Methyl-α-9-N-(gly)3-amino-9-desoxy-Neu5Ac] | – | <<0.27 | – | – | – | >>0.05 | – | – | (11%) | < 10 | (88%) | > 10
8 | COC1(C(=O)O)CC(O)C(NC(C)=O)C(C(O)C(O)CNC(=O)C(F)(F)F)O1 (stereo not drawn) [Methyl-α-9-N-trifluoracetyl-amino-9-desoxy-Neu5Ac] | – | 10 | 0.55 | – | – | 0.5 | 4 | – | – | – | – | –
9 | CO[C@]1(C(=O)O)C[C@H](O)[C@@H](NC(C)=O)[C@H]([C@H](O)[C@H](O)CNC(=O)c2cccc3ccccc23)O1 [Methyl-α-9-N-(naphthyl-1-carbonyl)-amino-9-desoxy-Neu5Ac] | 92 | 84 | 0.056 | 27 | 37 | 0.3 | 3 | 64 | – | – | – | –
10 | Methyl-α-methyl-α-5-N-fluoracetylaminoacetyl-neuraminic acid | – | – | – | – | – | 0.4 | 2.5 | – | – | – | (90%) | > 10
11 | COC1(C(=O)O)CC(O)C(NC(C)=O)C(C(O)C(O)CNC(=O)CNC(=O)CN)O1 (stereo not drawn) [Methyl-α-9-N-(gly)2-amino-9-desoxy-Neu5Ac] | – | 0.9 | 5 | – | – | <<0.1 | – | – | (100%) | > 10 | – | –
12 | COC1(C(=O)O)CC(O)C(NC(C)=O)C(C(O)C(O)C(=O)O)O1 (stereo not drawn) [Methyl-α-9-carboxy-Neu5Ac] | – | <<2.4 | > 1 | – | – | <0.2 | > 4 | – | (63%) | – | (87%) | –
13 | COC(=O)C1(OC)CC(O)C(NC(=O)CF)C(C(O)C(O)CO)O1 (stereo not drawn) [Methyl-α-methyl-α-5-N-fluoracetyl-neuraminic acid] | – | 17.1 | 0.28 | – | – | 1.9 | 0.625 | – | – | – | – | –
14 | COC1(C(=O)O)CC(O)C(NC(C)=O)C(C(O)C(O)CNS(=O)(=O)c2cccc3c(N(C)C)cccc23)O1 (stereo not drawn) [Methyl-α-9-N-dansyl-amino-9-desoxy-Neu5Ac] | – | 19 | 0.317 | – | – | 2.6 | 0.26 | – | – | – | – | –
15 | Methyl-α-9-N-(cyclobutendion)-amino-9-desoxy-Neu5Ac | 620 | – | – | 5.7 | 180 | – | – | 7.4 | – | – | – | –

The remaining lines, values ahead:

Row | IC50 (Siglec-2 (murine CD22)) [µM] | Siglec-4a (MAG) rIP (Siglec-4a (MAG)) | IC50 (Siglec-4a (MAG); unit inferred) [mM] | Siglec-2 (human CD22) rIP (Siglec-2 (human CD22)) | IC50 (Siglec-2 (human CD22)) [µM] | Siglec-1 (sialoadhesin) rIP (Siglec-1 (sialoadhesin)) | IC50 (Siglec-1 (sialoadhesin); unit inferred) [mM] | Siglec-2 (murine CD22) rIP (Siglec-2 (murine CD22)) | Siglec-1 (sialoadhesin) percentage in parentheses below the IC50 bound (Siglec-1 (sialoadhesin)) | IC50 (Siglec-1 (sialoadhesin); bounds given in mM) [mM] | Siglec-4a (MAG) percentage in parentheses below the IC50 bound (Siglec-4a (MAG)) | IC50 (Siglec-4a (MAG); bounds given in mM) [mM] | Compound
16 | 123 | – | – | 29 | 35 | 0.3 | 3 | 48 | – | – | – | – | CO[C@]1(C(=O)O)C[C@H](O)[C@@H](NC(C)=O)[C@H]([C@H](O)[C@H](O)CNC(=O)Cc2ccc(-c3ccccc3)cc2)O1 [Methyl-α-9-N-(biphenyl-4-acetyl)-amino-9-desoxy-Neu5Ac]
17 | 887 | – | – | 111 | 10 | 1.5 | 0.54 | 6.7 | – | – | – | – | COC1(C(=O)O)CC(O)C(NC(C)=O)C(C(O)C(O)CNC(=O)c2cccc(Oc3ccccc3)c2)O1 (stereo not drawn) [Methyl-α-9-N-(phenoxy-3-benzoyl)-amino-9-desoxy-Neu5Ac]
18 | 647 | 28 | 0.162 | 4.9 | 338 | 0.5 | 0.75 | 7.4 | – | – | – | – | COC1(C(=O)O)CC(O)C(NC(C)=O)C(C(O)C(O)CNC(=O)c2cccc3cc4ccccc4cc23)O1 (stereo not drawn) [Methyl-α-9-N-(anthracen-5-carbonyl)-amino-9-desoxy-Neu5Ac]
19 | 100 | 41 | 0.106 | 28 | 77 | <<0.5 | – | 48 | (121%) | > 1.5 | – | – | Methyl-α-9-N-fluoresceinyl-amino-9-desoxy-Neu5Ac
20 | 647 | – | – | 10 | 97 | 0.3 | 2.6 | 9.5 | – | – | – | – | CO[C@]1(C(=O)O)C[C@H](O)[C@@H](NC(C)=O)[C@H]([C@H](O)[C@H](O)CNC(=O)c2ccccc2-c2ccccc2)O1 [Methyl-α-9-N-(biphenyl-2-carbonyl)-amino-9-desoxy-Neu5Ac]
21 | – | 1.5 | 5.3 | – | – | 2.7 | 0.25 | – | – | – | – | – | CCCC(=O)N[C@H]1[C@H]([C@H](O)[C@H](O)CO)O[C@@](OCc2ccccc2)(C(=O)O)C[C@@H]1O [Benzyl-α-5-N-butanoyl-neuraminic acid]
22 | 703 | – | – | 1.0 | 1010 | – | – | 8.3 | – | – | – | – | CO[C@]1(C(=O)O)C[C@H](O)[C@@H](NC(=O)CO)[C@H]([C@H](O)[C@H](O)CO)O1 [Methyl-α-5-N-glycolyl-neuraminic acid]
23 | – | 6.2 | 1.01 | – | – | <0.05 | – | – | (62%) | > 10 | – | – | COC1(C(=O)O)CC(O)C(NC(C)=O)C(C(O)C(O)CNC(=O)CC(C)=O)O1 (stereo not drawn) [Methyl-α-9-N-acetoacetyl-amino-9-desoxy-Neu5Ac]

From patent publication US7820714B2, “Siglec inhibitors” (priority 2001, dated 2010)
